Consider 20 compounds from PMC8759731, “Design, synthesis, and evaluation of novel coumarin-dithiocarbamate derivatives (IDs) as anti-colorectal cancer agents” (Journal of Enzyme Inhibition and Medicinal Chemistry, 2021).

For data set [1], the system named is RKO cells. The experiment in a line: MTS cell viability assay, RKO cells. The note with it: Homo sapiens, 10 μM, 72 h. It counts as cell-based. An excerpt:
(§1) Human colorectal cancer cell lines including RKO, SW620 and SW480 were purchased from Chinese Academy of Sciences, a typical cell library culture preservation committee (Shanghai, China). Normal human colon epithelial cell line NCM460 was purchased from ATCC (Washington, DC, USA). RPMI-1640 medium (12633020), foetal bovine serum (FBS, 26170043), penicillin-streptomycin (10378016) and phosphate buffered saline (PBS, 70011044) were purchased from Gibco (Eggenstein, Germany). 5-Fluorouracil (5-FU, E0201010050, purity ≥98%) was purchased from Energy Chemical (Shanghai, China). Dimethyl sulfoxide (DMSO, 41639) was obtained from Sigma-Aldrich (St. Louis, MO). 3–(4,5-dimethylthiazol-2-yl)-5–(3-carboxymethoxyphenyl)-2–(4-sulfophenyl)-2H-tetrazolium (MTS, G1111) was purchased from Promega (Madison, WI, USA). All cell lines were cultured in RPMI-1640 medium supplemented with 10% FBS, penicillin (100 units/mL) and streptomycin ([…]) at 37 °C in a humidified atmosphere containing 5% CO2.
(§2) Cell viability was measured via MTS assay. RKO, SW620, SW480 and NCM460 cells were seeded in 96-well plates at a density of 5000 cells per well for 24 h. After treatment with the test compounds at indicated concentration for another 48 h or 72 h at 37 °C, MTS solution was added to each well and incubated for another 30 min at 37 °C. Then, the absorbance at 490 nm was measured by a BioTek Synergy H4 microplate Reader (Vermont, USA). The IC50 values were calculated with Graphpad 7.0 software packages.
For orientation: Formazan colour is commonly taken as a measure of viable cells.

Data set [2] in a line: MTS cell viability assay, NCM460 normal colon epithelial cells. The note with it: human, NCM460 normal colon epithelial cells, 10 μM. It counts as cell-based, human.
Source text: as §1, §2

In data set [3] the test system is SW620 cells. In words: MTS cell viability assay, SW620 cells. It is filed as cell-based. To be noted: Homo sapiens, SW-620, 10 μM, 72 h.
Source text: as §1, §2

Data set [4] has as its system SW480 cells. The experiment in a line: MTS cell viability assay, SW480 cells. It counts as cell-based. The note with it: Homo sapiens, 10 μM, 72 h.
Source text: as §1, §2

Data set [5] concerns the target T1, BRD4 (BD2) (Homo sapiens, UniProt O60885).
T1 construct: purchased Reaction Biology Corp. RD-11-158
The experiment in a line: HTRF assay BRD4 (BD2). It is filed as binding. To be noted: read-out: Inhibitory rate at 10 μM, BRD4 (BD2). On the procedure: (§3) In brief, compounds were serially diluted in Echo plate according to the plate map and DMSO’s final fraction is 0.1%. Then, transferring compounds and DMSO to 384-well assay plate by Echo. After that, 2× Protein and Peptide Mix was added to the assay plate and 2× Detection Mix was then added to assay plate and shook for 30 s. After incubating the plate at room temperature for 1.5 h, the HTRF signals (Excitation wavelength at 340 nm, Emission wavelength at 615 & 665 nm) was read on EnVision (PerkinElmer, UK). (+)-JQ1 (BPS Bioscience, Cat. No. 27402) was used as a positive control. BRD4-1 (RD-11–157) and BRD4-2 (RD-11–158) were purchased from Reaction Biology Corp. (PENN, USA). For Curve fitting, the inhibition values was calculated in Excel using Equation (1): Inhibition %=(Max-Signal)/(Max-Min)*100, and the IC50 values was calculated in XL-Fit using Equation (2): Y = Bottom + (Top-Bottom)/(1+(IC50/X)[…]), Y is %inhibition and X is compound concentration.
(Time-resolved FRET reads energy transfer from a long-lived donor to a nearby acceptor.)

Data set [6] deals with T2, BRD4 (BD1) (Homo sapiens, UniProt O60885).
T2 construct: purchased Reaction Biology Corp. RD-11-157
The experiment in a line: HTRF assay BRD4 (BD1). It is filed as binding. The note with it: 10 μM, read-out: Inhibitory rate at 10 μM, BRD4 (BD1). On the procedure: as §3

Consider `O=c1[nH]cc(F)c(=O)[nH]1` [5-FU, 5-Fluorouracil, reference compound], for which the figures for the viability at 10 µM in data set [1], in data set [3] and in data set [4] were 40.7%, 33.6% and 43.9%, respectively. In data set [2], the viability at 48 h, 10 µM came out at 80.4%.
The compound `CN(C)C(=S)SCc1ccc2oc(=O)ccc2c1` [ID-1, (2-Oxo-2H-chromen-6-yl)methyl dimethylcarbamodithioate] returned a melting point of 151.6 to 152.5 °C. Also, the inhibition at 10 µM in data set [5] stood at 1.5%. The inhibition at 10 µM in data set [6] is 2.2%.
The corresponding values for `CCN(CC)C(=S)SCc1ccc2oc(=O)ccc2c1` [ID-2, (2-Oxo-2H-chromen-6-yl)methyl diethylcarbamodithioate] are 100.1 to 101 °C, 5.1% and 4.3%.
The corresponding values for `CCCN(CCC)C(=S)SCc1ccc2oc(=O)ccc2c1` [ID-3, (2-Oxo-2H-chromen-6-yl)methyl dipropylcarbamodithioate] are 52.3 to 53.2 °C, 3.3% and 1.6%.
Consider `CCCCN(CCCC)C(=S)SCc1ccc2oc(=O)ccc2c1` [ID-4, (2-Oxo-2H-chromen-6-yl)methyl dibutylcarbamodithioate], for which the inhibition at 10 µM in data set [5] turned out to be 3.1%; in data set [6], 4.2%.
Compound `O=c1ccc2cc(CSC(=S)N3CCC3)ccc2o1` [ID-5, (2-Oxo-2H-chromen-6-yl)methyl azetidine-1-carbodithioate] showed a melting point of 144 to 145 °C. For the same compound, in data set [5], the inhibition at 10 µM was found to be 5.8%. Besides, the inhibition at 10 µM in data set [6] worked out at 6.2%.
On the same counts, the results for `O=c1ccc2cc(CSC(=S)N3CC(O)C3)ccc2o1` [ID-6, (2-Oxo-2H-chromen-6-yl)methyl 3-hydroxyazetidine-1-carbodithioate] are 137.8 to 138.7 °C, 8.7% and 15%.
On the same counts, the results for `O=c1ccc2cc(CSC(=S)N3CCCC3)ccc2o1` [ID-7, (2-Oxo-2H-chromen-6-yl)methyl pyrrolidine-1-carbodithioate] are 110.2 to 111.1 °C, 7.1% and 9.2%.
`O=c1ccc2cc(CSC(=S)N3CCCCC3)ccc2o1` [ID-8, (2-Oxo-2H-chromen-6-yl)methyl piperidine-1-carbodithioate] returned a melting point of 130.1 to 131 °C. Moreover, the inhibition at 10 µM in data set [5] is 8.2%. Moreover, the inhibition at 10 µM in data set [6] was 7.8%.
On the same counts, the results for `O=c1ccc2cc(CSC(=S)N3CCCCCC3)ccc2o1` [ID-9, (2-Oxo-2H-chromen-6-yl)methyl azepane-1-carbodithioate] are 72.6 to 73.5 °C, 5% and 6.3%.
The corresponding values for `O=c1ccc2cc(CSC(=S)N3CCOCC3)ccc2o1` [ID-10, (2-Oxo-2H-chromen-6-yl)methyl morpholine-4-carbodithioate] are 135.4 to 136.3 °C, 19.6% and 27.2%.
On the same counts, the results for `CN1CCN(C(=S)SCc2ccc3oc(=O)ccc3c2)CC1` [ID-12, (2-Oxo-2H-chromen-6-yl)methyl 4-methylpiperazine-1-carbodithioate] are 124.3 to 125.2 °C, 26.5% and 35.5%.
On to `CC(C)N1CCN(C(=S)SCc2ccc3oc(=O)ccc3c2)CC1` [ID-13, (2-Oxo-2H-chromen-6-yl)methyl 4-isopropylpiperazine-1-carbodithioate], for which the melting point was in the range of 73.6 to 74.5 °C. For the same compound, the inhibition at 10 µM in data set [5] was found to be 10.8%. In addition, the inhibition at 10 µM in data set [6] turned out to be 14.4%.
The corresponding values for `CC(C)(C)N1CCN(C(=S)SCc2ccc3oc(=O)ccc3c2)CC1` [ID-14, (2-Oxo-2H-chromen-6-yl)methyl 4-(tert-butyl)piperazine-1-carbodithioate] are 159.4 to 160.3 °C, 16.6% and 12.8%.
The corresponding values for `O=c1ccc2cc(CSC(=S)N3CCN(CCO)CC3)ccc2o1` [ID-15, (2-Oxo-2H-chromen-6-yl)methyl 4–(2-hydroxyethyl)piperazine-1-carbodithioate] are 120.9 to 121.8 °C, 33.3% and 40.2%.
On the same counts, the results for `O=c1ccc2cc(CSC(=S)N3CCN(C4CCCCC4)CC3)ccc2o1` [ID-16, (2-Oxo-2H-chromen-6-yl)methyl 4-cyclohexylpiperazine-1-carbodithioate] are 106.9 to 107.8 °C, 12.9% and 20.1%.
`O=c1ccc2cc(CSC(=S)N3CCN(c4ccc(O)cc4)CC3)ccc2o1` [ID-17, (2-Oxo-2H-chromen-6-yl)methyl 4–(4-hydroxyphenyl)piperazine-1-carbodithioate]: the melting point lay within 195.5 to 196.4 °C. The inhibition at 10 µM in data set [5] was determined as 27.7%. Also, in data set [6], the inhibition at 10 µM was found to be 39%.
On the same counts, the results for `N#Cc1ccc(N2CCN(C(=S)SCc3ccc4oc(=O)ccc4c3)CC2)cc1` [ID-18, (2-Oxo-2H-chromen-6-yl)methyl 4–(4-cyanophenyl)piperazine-1-carbodithioate] are 181.5 to 182.4 °C, 8.4% and 11.8%.
The corresponding values for `O=c1ccc2cc(CSC(=S)N3CCC(c4ccccc4)CC3)ccc2o1` [ID-19, (2-Oxo-2H-chromen-6-yl)methyl 4-phenylpiperidine-1-carbodithioate] are 115.6 to 116.5 °C, 3.2% and 6.5%.
On to `CN1CCN(C2CCN(C(=S)SCc3ccc4oc(=O)ccc4c3)CC2)CC1` [ID-20, (2-Oxo-2H-chromen-6-yl)methyl 4–(4-methylpiperazin-1-yl)piperidine-1-carbodithioate], for which the melting point lay within 95 to 96 °C. In addition, the inhibition at 10 µM in data set [5] stood at 29.3%. For the same compound, in data set [6], the inhibition at 10 µM came out at 36.6%.

Usually viability stands for a per cent measure of how many cells are alive, often set against a control. Usually melting point stands for the temperature, or range, at which the solid turns liquid.
